Experiments:
tumors = test: Survival of tumor-bearing mice treated with PI3K inhibitor BKM120 (Example 3); assay type: in vivo, C57/BL6 mice; details: Treatment Group 1: BKM120 37.5 mg/kg daily oral gavage with standard chow; not statistically different from Control (6.1 days)
Procedure: In this experiment, β-hydroxybutyrate (βHB) in formulations of the disclosure was tested for its ability to enhance the efficacy of PI3K inhibitors and compared to a ketogenic diet.
In vivo tests were performed as follows: C57/BL6 mice 8 weeks of age They were injected with […] cells in a 1:1 mix of growth media and matrigel. and tumors were allowed to grow to a minimum diameter of 0.6 cm before the initiation of treatment. All mice were treated daily with the P3K inhibitor BKM120 (37.5 mg/kg) by oral gavage and were given either a normal chow diet, a ketogenic diet, or a normal chow diet with there topically applied βHB. Trial design was built to assess this primary outcome: survival time. Treatment groups randomized as follows: […]
b. Treatment Group 1: BKM120 treatment with standard rodent chow c. Treatment Group 2: BKM120 treatment with ketogenic rodent chow d. Treatment Group 3: BKM120 treatment with standard rodent chow with 100 μL of βHB formulation applied topically twice daily. Formulations detailed below

[1] = Time to complete an 8 arm radial maze (Example 4); assay type: in vivo, Wistar rats; details: 5 days; topical = Formulation D 100 μL twice daily; ketone ester as 30% of calories
Procedure: (§1) In vivo tests were performed as follows: Wistar rats were treated with either topically applied βHB or a ketone ester diet. The experiment lasted for 5 days. Trial design was built to assess these primary outcomes: the effects on distance run on a treadmill, and on time to complete an 8 arm radial maze. Treatment groups randomized as follows: a. Control Group: standard diet (calorically matched to all treatment groups) b. Treatment Group 1: ketone ester diet with chow that is supplemented with (R)-3-hydroxybutyl (R)-3-hydroxybutyrate as 30% of calories c. […] Formulations detailed below [table]

[2] = Distance run on a treadmill (Example 4); assay type: in vivo, Wistar rats; details: 5 days; topical = Formulation D 100 μL twice daily; ketone ester as 30% of calories
Procedure: as §1

[3] = Blood glucose levels in rats after ketone supplements (Example 5); assay type: in vivo, Sprague-Dawley rats; details: 10 g/kg intragastric gavage; 4-week study
Procedure: In this experiment, β-hydroxybutyrate (βHB) in formulations of the disclosure was tested for its ability to impact blood ketone and glucose levels and compared to oral delivery of various exogenous ketone supplements.
The experiment lasted for 28 days. Trial design was built to assess these primary outcomes: the effects on blood ketones and blood glucose. Blood samples were taken for analysis of glucose and βHB at baseline and, 0.5, 1, 4, 8, and 12 h post-treatment. Treatment groups randomized as follows:
Treatment Group 1: daily 10 g/kg dose via intragastric gavage of 1,3-butanediol (BD)
Treatment Group 2: daily 10 g/kg dose via intragastric gavage of sodium/potassium β-hydroxybutyrate (βHB) mineral salt (BMS)
Treatment Group 3: daily 10 g/kg dose via intragastric gavage of medium chain triglyceride oil (MCT)
Treatment Group 5: daily 10 g/kg dose via intragastric gavage of 1,3 butanediol acetoacetate diester (KE)
g. Treatment Group 6: 100 μL of βHB formulation applied topically daily.

[4] = system: firefly luciferase-tagged syngeneic VM-M3 cells; test: Survival of VM mice with metastatic cancer (Example 2); assay type: in vivo; details: VM-M3 implanted VM mice
Procedure: In this experiment, β-hydroxybutyrate (βHB) in formulations of the disclosure was tested for its ability to decrease tumor cell viability and prolong survival and compared to an orally delivered diet supplemented with either 1,3-butanediol (BD) or a ketone ester (KE), which are metabolized to the ketone bodies βHB and acetoacetate.
In vivo tests were performed as follows: Adult male inbred VM mice were implanted subcutaneously with firefly luciferase-tagged syngeneic VM-M3 cells. The mice were then fed a standard diet with no topical treatment, a standard diet supplemented with either 1,3-butanediol (BD) or a ketone ester (KE), or a standard diet with topically applied βHB. Trial design was built to assess this primary outcome: survival time. Treatment groups randomized as follows: […]
a. Control Group: standard diet rodent chow b. Treatment Group 1: standard diet rodent chow mixed with 20% 1,3-butanediol (BD) by volume and 1% saccharin for palatability c. Treatment Group 2: standard diet rodent chow mixed with 10% ketone esters (KE) by volume and 1% saccharin for palatability d. Treatment Group 3: standard diet rodent chow with 100 μL of βHB formulation applied topically twice daily. Formulations detailed below

**Q.** With `Nc1cc(C(F)(F)F)c(-c2cc(N3CCOCC3)nc(N3CCOCC3)n2)cn1` [BKM120] as the compound, how does the mean survival time (tumors) read?
**A.** The mean survival time was 6.7 days.

**Q.** Which “mean decrease in time to solve the maze vs control” value [1] does the source give for `C[C@@H](O)CCOC(=O)C[C@@H](C)O` [ketone ester diet, (R)-3-hydroxybutyl (R)-3-hydroxybutyrate] here?
**A.** The value was 38%.

**Q.** And the “mean increase in treadmill distance vs control” value [2]?
**A.** The value was 32%.

**Q.** Which “effect on blood glucose” value [3] does the source give for `CC(O)CCO` (stereo not drawn) [oral BD, 1,3-butanediol] here?
**A.** The value was “did not significantly change blood glucose levels at any time point”.

**Q.** What about the “mean increase in mean survival time versus Control Group” value ([4]; BD 20% or KE 10% in chow, topical = Formulation B 100 μL twice daily) of the same compound?
**A.** Its value is 50.6%.

**Q.** And the mean survival time ([4]; Control Group 31.2 days, topical = Formulation B)?
**A.** Its mean survival time is 47.0 days.

— patent US20210338613A1, “FORMULATIONS AND METHODS FOR TRANSDERMAL ADMINISTRATION OF KETONES” (DYVE BIOSCIENCES, INC., priority 2018, published 2021)
